Several values for one entry are separate records, joined by “and”; a condition that tells them apart may be missing. Equal entries are not always repeated.
Experiment: Concentrate storage stability, compound of formula (2) 30 mg/mL in 30% CAPTISOL pH 4.0 (Example 8)
Format: physicochemical
Parameters: key to Appearance 0 h / Appearance 24 h / Appearance 72 h / Appearance 168 h: the term “c/c” refers to clear and colorless
Conditions: for Concentration, mg/mL 0 h / Concentration, mg/mL 24 h / Concentration, mg/mL 72 h / Concentration, mg/mL 168 h: 30 mg/mL concentrate in 30% CAPTISOL pH 4.0; for Appearance 0 h / Appearance 24 h / Appearance 72 h / Appearance 168 h / Observed Degradant, Compound of Formula (101), mg/mL 0 h / Observed Degradant, Compound of Formula (101), mg/mL 24 h / Observed Degradant, Compound of Formula (101), mg/mL 72 h / Observed Degradant, Compound of Formula (101), mg/mL 168 h / pH 0 h / pH 24 h / pH 72 h / pH 168 h: concentrate
Procedure: The storage stability of a liquid concentrate of the Compound of formula (2) (30 mg/mL) in the vehicle 30% CAPTISOL® (w/v) at pH 4.0, was assessed at 4° C. and 25° C. over 7 days, with time points after 1, 3 and 7 days. At each time point samples were assessed for visual appearance, pH, and concentration and purity by HPLC (XBridge Phenyl Column (Waters); UV absorbance detector at 272 nm; mobile phase a step gradient of aqueous acetonitrile containing 0.1% (v/v) formic acid).
The selected vehicle, CAPTISOL® (30% w/v) in water with pH adjusted to 4.0, was prepared by accurately weighing 30 grams of CAPTISOL® into a 150 mL beaker and dissolved with 45 mL of water. The pH was adjusted to pH 4.0 by addition of 0.1N HCl. Subsequently, the vehicle was transferred to a volumetric flask and brought to 100 mL final volume by addition of water. After incubation at a temperature of about 25° C. for 30 minutes, the pH of the vehicle was re-adjusted to pH 4.0 by addition of 0.1N HCl. The vehicle formed a clear, colorless solution.
A concentrated solution of the compound of formula (2) was prepared as follows. A stir bar and 30 mL of vehicle were added to a 150 mL beaker. Approximately […] of the compound of formula (2) was dispensed and transferred to the beaker under low to medium stirring. After 45 minutes of stirring at a temperature of about 25° C. (protected from light), the concentrate formed a clear, colorless solution with some small, white clumps of the compound of formula (2) floating in solution. The remaining clumps were gently broken-up using a spatula. Following an additional 45 minutes of stirring, the concentrate formed a clear, colorless solution without any visible solids. The concentrate was then filtered (0.2 μm) through a 0.22 μm PVDF syringe filter.
For t=0 h testing, aliquots were distributed into vials and analyzed by HPLC (XBridge Phenyl Column (Waters); UV absorbance detector at 272 nm; mobile phase a step gradient of aqueous acetonitrile containing 0.1% (v/v) formic acid) and the sample pH was determined. Twelve aliquots of 1 mL of the concentrate were distributed into microcentrifuge tubes for storage at 4° C. and 25° C. After approximately 24, 72 and 168 hours of storage, two aliquots were removed from each storage condition and assessed for visual appearance, pH, and concentration and purity by HPLC. […] The pH of the samples stored at 4° C. and 25° C. decreased from 3.7 to 3.6 and 3.3, respectively, over the 7 days. In Table 12, the term “c/c” refers to clear and colorless.

CS(=O)(=O)c1cccc(S(=O)(=O)NO)c1 [Compound 2, N-Hydroxy-3-methanesulfonylbenzene-1-sulfonamide]
concentration sustained (4° C. and 25° C., over 7 days): 30000 µg/mL
known degradant (compound of formula (101)) (4° C. and 25° C., over 7 days): No detectable levels
visual appearance of all samples (4° C. and 25° C., over 7 days): clear, colorless solutions
Concentration, mg/mL 0 h (4° C.): 30.3 mg/mL
Concentration, mg/mL 24 h (4° C.): 30.6 mg/mL and 30.2 mg/mL
Concentration, mg/mL 72 h (4° C.): 29.6 mg/mL and 29.4 mg/mL
Concentration, mg/mL 168 h (4° C.): 29.7 mg/mL and 29.9 mg/mL
Appearance 0 h (4° C.): c/c
Appearance 24 h (4° C.): c/c
Appearance 72 h (4° C.): c/c
Appearance 168 h (4° C.): c/c
Observed Degradant, Compound of Formula (101), mg/mL 0 h (4° C.): No
Observed Degradant, Compound of Formula (101), mg/mL 24 h (4° C.): No
Observed Degradant, Compound of Formula (101), mg/mL 72 h (4° C.): No
Observed Degradant, Compound of Formula (101), mg/mL 168 h (4° C.): No
pH 0 h (4° C.): 3.7 and 3.71
pH 24 h (4° C.): 3.70
pH 72 h (4° C.): 3.66
pH 168 h (4° C.): 3.6 and 3.61 and 3.58
Concentration, mg/mL 0 h (25° C.): 30.3 mg/mL
Concentration, mg/mL 24 h (25° C.): 30.2 mg/mL
Concentration, mg/mL 72 h (25° C.): 29.4 mg/mL and 29.8 mg/mL
Concentration, mg/mL 168 h (25° C.): 29.5 mg/mL and 29.4 mg/mL
Appearance 0 h (25° C.): c/c
Appearance 24 h (25° C.): c/c
Appearance 72 h (25° C.): c/c
Appearance 168 h (25° C.): c/c
Observed Degradant, Compound of Formula (101), mg/mL 0 h (25° C.): No
Observed Degradant, Compound of Formula (101), mg/mL 24 h (25° C.): No
Observed Degradant, Compound of Formula (101), mg/mL 72 h (25° C.): No
Observed Degradant, Compound of Formula (101), mg/mL 168 h (25° C.): No
pH 0 h (25° C.): 3.71
pH 24 h (25° C.): 3.47 and 3.48
pH 72 h (25° C.): 3.34
pH 168 h (25° C.): 3.3 and 3.32
